Where “and” joins values, the source holds several entries; their conditions need not be identical. Equal entries are not always repeated. Where two headings read alike, the source gives them in different places.

One assay concerns the target T1, PfENT1WT (Plasmodium falciparum, UniProt Q8IDM6).
T1 construct: 10xHis (N); made in house; host or cells: Sf9 insect cells (baculovirus)
As to the kind of experiment: biochemical. It counts as binding. The protocol:
(§1) For the in vitro binding assay, Sf9 cells were solubilized in lysis buffer containing 2% (w/v) n-dodecyl-β-D-maltopyranoside (DDM, Anatrace) and protease inhibitor cocktail (0.8 μM aprotinin, 2 μM pepstatin, and 5 μg/ml leupeptin) at 4 °C for 2 h. The soluble supernatant was collected via centrifugation and incubated with Ni-NTA resin (QIAGEN) at 4 °C for 1 h. The resin was washed and eluted using lysis buffer containing 0.05% (w/v) DDM and 30 mM/300 mM imidazole. The protein was further purified by size-exclusion chromatography (Superdex 200 Increase 10/300; GE Healthcare) in buffer containing 25 mM MES (pH 6.0), 150 mM NaCl, and 0.05% (w/v) DDM. The peak fractions were pooled and concentrated to 10~50 μM for the nucleoside-binding assay.
(§2) The binding affinity between wild-type and mutant PfENT1 with nucleosides and GSK4 was measured using a Micro-Cal ITC200 (Malvern). All proteins were prepared in 25 mM MES (pH 6.0), 150 mM NaCl, and 0.05% (w/v) DDM. Nucleosides (5~10 mM) and GSK4 (100-200 μM) dissolved in the same buffer were titrated against 20–50 μM PfENT1 proteins at 25 °C. PEAQ-ITC analysis software (MicroCal) was employed to analyze the data. All titrations were repeated three times.

A further assay deals with T2, PfENT1 mutant S49A (Plasmodium falciparum, UniProt Q8IDM6, S49A).
T2 construct: 10xHis (N); made in house; host or cells: Sf9 insect cells (baculovirus)
T2 sequence (Q8IDM6 1-422 S49A): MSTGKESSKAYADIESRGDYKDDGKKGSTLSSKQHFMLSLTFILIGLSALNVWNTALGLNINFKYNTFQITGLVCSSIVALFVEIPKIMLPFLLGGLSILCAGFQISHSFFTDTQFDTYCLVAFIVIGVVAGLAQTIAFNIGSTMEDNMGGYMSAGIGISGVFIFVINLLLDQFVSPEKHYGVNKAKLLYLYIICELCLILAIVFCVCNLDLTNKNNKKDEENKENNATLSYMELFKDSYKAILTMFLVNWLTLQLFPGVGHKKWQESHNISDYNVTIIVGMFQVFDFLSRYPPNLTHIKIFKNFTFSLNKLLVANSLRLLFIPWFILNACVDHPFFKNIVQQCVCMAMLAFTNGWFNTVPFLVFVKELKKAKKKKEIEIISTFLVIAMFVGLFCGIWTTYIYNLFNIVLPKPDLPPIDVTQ
Nature of the assay: ITC binding to PfENT1 mutant S49A. Particulars: Fig. 3c. The protocol:
as §1, §2

The target in the next assay is T3, PfENT1 W53A (Plasmodium falciparum, UniProt Q8IDM6, W53A).
T3 construct: expressed in transfected cells; host or cells: S. cerevisiae BY4741, FUI1 deleted, PfENT1 mutant knock-in under the TEF1 promoter
T3 sequence (Q8IDM6 whole entry W53A): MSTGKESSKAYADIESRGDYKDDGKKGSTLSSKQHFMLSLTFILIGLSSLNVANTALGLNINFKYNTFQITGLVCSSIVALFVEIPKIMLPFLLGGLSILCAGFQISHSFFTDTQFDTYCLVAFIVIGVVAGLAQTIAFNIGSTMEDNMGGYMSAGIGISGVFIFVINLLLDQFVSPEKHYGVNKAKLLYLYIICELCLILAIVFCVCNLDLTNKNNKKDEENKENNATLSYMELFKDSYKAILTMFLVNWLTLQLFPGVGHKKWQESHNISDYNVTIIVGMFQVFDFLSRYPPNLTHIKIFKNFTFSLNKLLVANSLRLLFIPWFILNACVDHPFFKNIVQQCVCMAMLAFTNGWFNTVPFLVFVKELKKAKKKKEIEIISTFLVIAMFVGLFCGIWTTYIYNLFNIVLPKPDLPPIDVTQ
As to the kind of experiment: Inosine uptake assay, yeast expressing PfENT1 W53A. In kind it is cell-based. Particulars: Fig. 3d, construct W53A. The source says:
(§3) Codon-optimized PfENT1 (for expression in yeast) was synthesized by Sangon Biotech. The carboxyl terminus of PfENT1 was HA-tagged through PCR. The TEF1p promoter and PGK1t terminator were amplified from BY4741 genomic DNA. Overlap PCR was applied to generate the gene overexpression cassette of PfENT1 (TEF1p promoter-PfENT1-PGK1t terminator). The two 600-bp homologous arms corresponding to the upstream and downstream regions of the FUI1 gene were amplified from BY4741 genomic DNA. The gene cassette of the ‘TEF1p promoter-PfENT1-PGK1t terminator’ together with the two homologous arms was cloned into the PUC19 plasmid through Gibson assembly, generating the final plasmid PUC19: PfENT1. PfENT1 mutations were generated using point mutation and verified by Sanger sequencing. The spacer targeting the FUI1 gene (5ʹ-[…]-3ʹ) was cloned into the pCas-BsaI plasmid to generate the pCas-FUI1 plasmid as described previously. […]
(§4) Cells were grown overnight in YPD medium to mid-log phase and harvested by centrifugation at 3000 × g for 5 min. […] After washing by vacuum filtration with 2 ml ice-cold 2% glucose, the radioactivity retained on the filter was incubated with 1 mL of ULTIMA GOLD scintillation fluid (Perkin Elmer, 77-15311). Counts were measured using a liquid scintillation analyzer (Perkin Elmer, Tri-Carb 5110TR). […]

A further assay deals with T4, PfENT1 R291A (Plasmodium falciparum, UniProt Q8IDM6, R291A).
T4 construct: expressed in transfected cells; host or cells: S. cerevisiae BY4741, FUI1 deleted, PfENT1 mutant knock-in under the TEF1 promoter
T4 sequence (Q8IDM6 whole entry R291A): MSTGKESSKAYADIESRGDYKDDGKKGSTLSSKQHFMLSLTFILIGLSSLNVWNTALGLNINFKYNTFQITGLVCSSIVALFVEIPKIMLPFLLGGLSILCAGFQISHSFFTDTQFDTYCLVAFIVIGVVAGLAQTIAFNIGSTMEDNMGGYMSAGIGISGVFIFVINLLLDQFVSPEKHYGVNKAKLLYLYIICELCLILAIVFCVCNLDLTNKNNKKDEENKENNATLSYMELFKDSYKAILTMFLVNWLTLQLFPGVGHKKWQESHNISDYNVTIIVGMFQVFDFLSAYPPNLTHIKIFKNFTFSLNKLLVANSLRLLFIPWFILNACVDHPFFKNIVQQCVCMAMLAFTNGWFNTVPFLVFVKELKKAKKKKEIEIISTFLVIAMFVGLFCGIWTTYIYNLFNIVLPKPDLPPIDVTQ
Nature of the assay: Inosine uptake assay, yeast expressing PfENT1 R291A. The settings on record: Fig. 3d, construct R291A. It counts as cell-based.
Excerpt: as §3, §4

T1 sequence (Q8IDM6 whole entry): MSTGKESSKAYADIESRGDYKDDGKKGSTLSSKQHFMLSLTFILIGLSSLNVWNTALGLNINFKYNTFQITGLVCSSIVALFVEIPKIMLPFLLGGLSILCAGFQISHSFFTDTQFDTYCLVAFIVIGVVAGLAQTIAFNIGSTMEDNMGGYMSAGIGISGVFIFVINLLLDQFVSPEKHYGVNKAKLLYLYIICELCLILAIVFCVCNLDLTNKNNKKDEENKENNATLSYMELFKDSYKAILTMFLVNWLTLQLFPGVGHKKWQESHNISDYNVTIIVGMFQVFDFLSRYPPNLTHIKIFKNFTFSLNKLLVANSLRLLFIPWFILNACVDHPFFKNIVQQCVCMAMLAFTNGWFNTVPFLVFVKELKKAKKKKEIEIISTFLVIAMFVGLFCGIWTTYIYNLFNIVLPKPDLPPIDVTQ

Turning to `OC[C@H]1O[C@@H](n2cnc3c(O)ncnc32)[C@H](O)[C@@H]1O` [Inosine, inosine], the Kd at PfENT1WT (Kd, Mean and Mean ± SD, source data Figure 1a) is 64.7 µM; on PfENT1WT (Kd, N=3 (individual experiments), source data Figure 1a), 52.3 µM and 64.2 µM and 77.7 µM; at PfENT1WT (binding affinity (Kd), ITC, 25 °C, pH 6.0, mean ± SD (n = 3), Fig. 1a and text), 64.7 ± 12.7 µM; on PfENT1WT (read-out: Kd, Mean and Mean ± SD, source data Figure 1a) it was 64.7 ± 12.7 µM. The “binding affinity (Kd)” value on PfENT1 mutant S49A is reported as “complete abolishment”. The results for the “Uptake of [3H]-inosine (Percentage of PfENT1 WT)” value on PfENT1 W53A and at PfENT1 R291A were “abolished the transport activity” and “lost the transport activity”, respectively.

For orientation: Kd means the constant that tells how readily two partners part at equilibrium.

For the origin of these results see paper PMC10050424, “Structural basis of the substrate recognition and inhibition mechanism of Plasmodium falciparum nucleoside transporter PfENT1” (Nature Communications, 2023).
